Measurements taken from ChEMBL document CHEMBL1155836, “Discovery of imidazole carboxamides as potent and selective CCK1R agonists” (Bioorg Med Chem Lett, 2008).
Active and inactive are the calls of the source. The calls are words filed in the database; no cut-off is given here.

How the values were obtained:
[1] = target: T1, Gastrin/cholecystokinin type B receptor (Homo sapiens) (UniProt P32239); experiment: Agonist activity against human CCK2 receptor; format: functional
T1 sequence (whole entry): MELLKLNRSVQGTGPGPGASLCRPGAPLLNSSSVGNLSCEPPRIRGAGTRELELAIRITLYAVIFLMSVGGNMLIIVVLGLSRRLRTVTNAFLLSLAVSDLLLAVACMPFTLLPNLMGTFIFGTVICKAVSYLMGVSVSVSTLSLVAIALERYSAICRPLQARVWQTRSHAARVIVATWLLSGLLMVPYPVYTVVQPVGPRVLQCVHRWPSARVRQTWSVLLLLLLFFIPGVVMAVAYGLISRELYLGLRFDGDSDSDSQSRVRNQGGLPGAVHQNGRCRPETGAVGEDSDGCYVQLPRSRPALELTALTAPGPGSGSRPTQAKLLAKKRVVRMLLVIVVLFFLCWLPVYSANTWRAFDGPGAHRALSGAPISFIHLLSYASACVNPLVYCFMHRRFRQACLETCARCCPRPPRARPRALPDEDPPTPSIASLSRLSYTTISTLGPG

[2] = target: T1, Gastrin/cholecystokinin type B receptor (Homo sapiens); experiment: Agonist activity against human CCK2 receptor assessed as receptor activation at 10000 nM; format: functional
[3] = target: T2, Cholecystokinin receptor type A (Homo sapiens, UniProt P32238); experiment: Agonist activity against human CCK1 receptor; format: functional
T2 sequence (P32238 whole entry): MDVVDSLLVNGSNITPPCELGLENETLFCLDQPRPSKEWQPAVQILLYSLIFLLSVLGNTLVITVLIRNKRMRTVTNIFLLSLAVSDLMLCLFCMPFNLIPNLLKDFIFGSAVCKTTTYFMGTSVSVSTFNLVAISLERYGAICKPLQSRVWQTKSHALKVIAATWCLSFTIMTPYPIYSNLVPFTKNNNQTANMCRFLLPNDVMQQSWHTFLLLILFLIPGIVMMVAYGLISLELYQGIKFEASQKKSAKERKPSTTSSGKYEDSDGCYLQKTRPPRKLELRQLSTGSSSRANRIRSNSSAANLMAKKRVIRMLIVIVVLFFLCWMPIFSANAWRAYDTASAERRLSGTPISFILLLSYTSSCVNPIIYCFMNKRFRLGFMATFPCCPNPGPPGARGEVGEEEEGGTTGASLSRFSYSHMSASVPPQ

[4] = target: T3, Cholecystokinin receptor type A (Homo sapiens) (UniProt P32238); experiment: Agonist activity against human CCK1 receptor assessed as receptor activation at 10000 nM; format: functional
T3 sequence (whole entry): T2 sequence (P32238 whole entry)

[5] = target: T2, Cholecystokinin receptor type A; experiment: Inhibition of human CCK1 receptor
[6] = target: T4, Gastrin/cholecystokinin type B receptor (Homo sapiens, UniProt P32239); experiment: Inhibition of human CCK2 receptor
T4 sequence (P32239 whole entry): T1 sequence (whole entry)

[7] = target: T1, Gastrin/cholecystokinin type B receptor (Homo sapiens); experiment: Inhibition of human CCK2 receptor at 10000 nM

Structure (SMILES)	Activity [1]	Activity [2]	EC50 [3]	Activity [4]	IC50 [5]	IC50 [6]	inhibition [7]
COc1cccc(-n2cc(C(=O)N3CCN(c4ccc5ncccc5c4)CC3)nc2-c2ccc(C)cc2)c1	inactive	< 20%	9.3 nM	108%	8.6 nM		
Cc1ccc(-c2nc(C(=O)N3CCN(c4ccc5ccccc5c4)CC3)cn2-c2cccc(OCC(F)(F)F)c2)cc1	inactive	< 21%	1350 nM	95%	200 nM		
CCc1cccc(-n2cc(C(=O)N3CCN(c4ccc5ccccc5c4)CC3)nc2-c2ccc(C)cc2)c1	inactive	< 21%	65 nM	101%	43 nM		
CCOc1cccc(-n2cc(C(=O)N3CCN(c4ccc5ccccc5c4)CC3)nc2-c2ccc(C)cc2)c1	inactive	< 12%	6.6 nM	93%	2.3 nM		
Cc1ccc(-c2nc(C(=O)N3CCN(c4ccc5ccccc5c4)CC3)cn2-c2cccc3c2OCCO3)cc1	inactive	< 21%	471 nM	70%	140 nM		
O=C(c1cn(-c2ccc3c(c2)OCCO3)c(-c2ccc(F)cc2)n1)N1CCN(c2cnc3ccccc3c2)CC1	inactive	< 36%	0.26 nM	101%	0.12 nM	> 10000 nM	< 24%
Cc1ccc(-c2nc(C(=O)N3CCN(c4ccc5ccccc5c4)CC3)cn2-c2cccc(O)c2)cc1	inactive	< 21%	82 nM	102%	22 nM		
COc1cccc(-n2cc(C(=O)N3CCN(c4ccc5cnccc5c4)CC3)nc2-c2ccc(C)cc2)c1	inactive	< 20%	106 nM	86%	190 nM		
COc1cccc(-n2cc(C(=O)N3CCN(c4ccc(Cl)c(Cl)c4)CC3)nc2-c2ccc(C)cc2)c1	inactive	< 20%	25 nM	99%	8 nM		
COc1cccc(-n2cc(C(=O)N3CCN(c4cc5ccccc5cc4C(=O)O)CC3)nc2-c2ccc(C)cc2)c1	inactive	< 20%	0.4 nM	92%	1.3 nM		
CCOc1cccc(-n2cc(C(=O)N3CCN(c4ccc5ccccc5c4)CC3)nc2-c2ccc(CC)cc2)c1	inactive	< 12%	175 nM	83%	43 nM		
COc1cccc(-n2cc(C(=O)N3CCN(c4nc5ccccc5[nH]4)CC3)nc2-c2ccc(C)cc2)c1	inactive	< 20%	9.1 nM	89%	17 nM		
CCOc1cccc(-n2cc(C(=O)N3CCN(c4cnc5ccccc5c4)CC3)nc2-c2ccc(F)cc2)c1	inactive	< 36%	0.25 nM	92%	0.6 nM	> 10000 nM	< 24%
Cc1ccc(-c2nc(C(=O)N3CCN(c4ccc5ccccc5c4)CC3)cn2-c2ccc3c(c2)OCCO3)cc1	inactive	< 21%	0.99 nM	89%	0.42 nM		
COc1cccc(-n2cc(C(=O)N3CCN(c4cccc(Cl)c4)CC3)nc2-c2ccc(C)cc2)c1	inactive	< 20%	74 nM	89%	14 nM		
COc1cccc(-n2cc(C(=O)N3CCN(c4ccc5ccccc5c4)CC3)nc2-c2ccc(C)cc2)c1	inactive	< 21%	9.6 nM	99%	2.5 nM		
COc1cccc(-c2cc(C(=O)N3CCN(c4cccc(Cl)c4)CC3)nn2-c2ccc(C)cc2)c1		4.4%	308 nM	82%	41 nM		
CCCOc1cccc(-n2cc(C(=O)N3CCN(c4ccc5ccccc5c4)CC3)nc2-c2ccc(C)cc2)c1	inactive	< 21%	962 nM	89%	160 nM		
Cc1ccc(-c2nc(C(=O)N3CCN(c4ccc5ccccc5c4)CC3)cn2-c2cccc(OC(F)(F)F)c2)cc1	inactive	< 21%	3150 nM	66%	130 nM		

Structure (SMILES)	Activity [1]	Activity [2]	EC50 [3]	Activity [4]	IC50 [5]	IC50 [6]	inhibition [7]
CCOc1cccc(-n2cc(C(=O)N3CCN(c4ccc5ccccc5c4)CC3)nc2-c2ccc(F)cc2F)c1	inactive	< 12%	1.1 nM	103%	1 nM		
CCOc1cccc(-n2cc(C(=O)N3CCN(c4ccc5ccccc5c4)CC3)nc2-c2cccc(F)c2)c1	inactive	< 12%	105 nM	106%	35 nM		
CCOc1cccc(-n2cc(C(=O)N3CCN(c4ccc5ccccc5c4)CC3)nc2-c2ccccc2F)c1	inactive	< 12%	6.3 nM	110%	1.9 nM		
CCOc1cccc(-n2cc(C(=O)N3CCN(c4ccc5ccccc5c4)CC3)nc2-c2ccc(C)cc2F)c1	inactive	< 12%	1.9 nM	116%	0.56 nM		
CCOc1cccc(-n2cc(C(=O)N3CCN(c4cc(C(=O)O)c5ccccc5c4)CC3)nc2-c2ccc(F)cc2)c1	inactive	< 36%		95%			< 24%
COc1cccc(-n2cc(C(=O)N3CCN(c4cc(C(=O)O)c5ccccc5c4)CC3)nc2-c2ccc(C)cc2)c1	inactive	< 20%	0.078 nM	85%	0.14 nM		
COc1cccc(-n2cc(C(=O)N3CCN(c4ccc5ccccc5n4)CC3)nc2-c2ccc(C)cc2)c1	inactive	< 20%	43 nM	89%	16 nM		
COc1ccc(-n2cc(C(=O)N3CCN(c4ccc5ccccc5c4)CC3)nc2-c2ccc(C)cc2)cc1	inactive	< 21%	20 nM	110%	6.9 nM		
O=C(O)c1cc(N2CCN(C(=O)c3cn(-c4ccc5c(c4)OCCO5)c(-c4ccc(F)cc4)n3)CC2)cc2ccccc12 [listing 1 of 2 here]			0.093 nM		0.03 nM	> 10000 nM	
Cc1ccc(-c2nc(C(=O)N3CCN(c4ccc5ccccc5c4)CC3)cn2-c2cccc(OC(C)C)c2)cc1	inactive	< 21%	53 nM	94%	30 nM		
CCOc1cccc(-n2cc(C(=O)N3CCN(c4ccc5ccccc5c4)CC3)nc2-c2ccc(Cl)cc2)c1	inactive	< 12%	5.5 nM	119%	5.6 nM		
CCOc1cccc(-n2cc(C(=O)N3CCN(c4ccc5ccccc5c4)CC3)nc2-c2ccc(F)cc2)c1	inactive	< 12%	2.9 nM	96%	1.9 nM		
COc1cccc(-n2cc(C(=O)N3CCN(c4cnc5ccccc5c4)CC3)nc2-c2ccc(C)cc2)c1	inactive	< 20%	1.1 nM	92%	1.3 nM		
CCOc1cccc(-n2cc(C(=O)N3CCN(c4ccc5ccccc5c4)CC3)nc2-c2c(F)cccc2F)c1	inactive	< 12%	4.4 nM	109%	1.9 nM		
O=C(O)c1cc(N2CCN(C(=O)c3cn(-c4ccc5c(c4)OCCO5)c(-c4ccc(F)cc4)n3)CC2)cc2ccccc12 [listing 2 of 2 here]	inactive	< 36%		97%			< 24%
CCOc1cccc(-n2cc(C(=O)N3CCN(c4ccc5ccccc5c4)CC3)nc2-c2ccccc2)c1	inactive	< 12%	7.4 nM	100%	3.4 nM		
COc1cccc(-n2cc(C(=O)N3CCN(c4cc5ccccc5cn4)CC3)nc2-c2ccc(C)cc2)c1	inactive	< 20%	8.4 nM	89%	1.9 nM		
COc1cccc(-n2cc(C(=O)N3CCN(c4cccc5ccccc45)CC3)nc2-c2ccc(C)cc2)c1	inactive	< 20%	5370 nM	30%	630 nM		
